Measured values from publication PMC9229919, “4-Aminoquinoline-Based Adamantanes as Potential Anticholinesterase Agents in Symptomatic Treatment of Alzheimer’s Disease” (Pharmaceutics, 2022).
Like-named read-outs stand apart in the source and are kept apart here.

Key:
[1] = standard compounds of the interpolation method; cited from earlier work
purified human BChE = target: T1, purified human BChE (Homo sapiens, UniProt P06276); assay: biochemical; assay type: biochemical
T1 construct: possibly also a gift of Dr Florian Nachon (the sentence is ambiguous)
Outline: (§1)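 Modified Ellman assay with acetylthiocholine and DTNB in 0.1 M sodium phosphate pH 7.4 (enzymes diluted with 0.1% BSA), ≤0.2% DMSO, 25 °C. At least three inhibitor concentrations per substrate level; Ki,app from Hunter–Downs equation, Ki from y-intercept and inhibition type from Ki,app vs [S].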

recombinant human AChE = target: T2, recombinant human AChE (Homo sapiens, UniProt P22303); assay: biochemical; assay type: biochemical; settings: for IS: IS = Ki(BChE)/Ki(AChE), IS > 1 selective to AChE
T2 construct: gift of Dr Florian Nachon (Armed Forces Biomedical Research Institute, Brétigny-sur-Orge, France)
Outline: as §1

[2] = Reverse-phase thin-layer chromatographic lipophilicity (RF, RM0); assay type: physicochemical; settings: for RM0: intercept of RM = RM0 + bC; for b: slope of RM = RM0 + bC; for RF, Methanol/Water/Hydrochloric acid (conc.), mobile phase I / RF, Dioxane/Water/Hydrochloric acid (conc.), mobile phase II / RF, Methanol/Water/Hydrochloric acid (conc.), mobile phase II / RF, Acetone/Water/Hydrochloric acid (conc.), mobile phase III / RF, Dioxane/Water/Hydrochloric acid (conc.), mobile phase III / RF, Methanol/Water/Hydrochloric acid (conc.), mobile phase III / RF, Dioxane/Water/Hydrochloric acid (conc.), mobile phase IV / RF, Acetone/Water/Hydrochloric acid (conc.), mobile phase IV / RF, Methanol/Water/Hydrochloric acid (conc.), mobile phase IV / RF, Acetone/Water/Hydrochloric acid (conc.), mobile phase IX / RF, Methanol/Water/Hydrochloric acid (conc.), mobile phase IX / RF, Dioxane/Water/Hydrochloric acid (conc.), mobile phase V / RF, Acetone/Water/Hydrochloric acid (conc.), mobile phase V / RF, Methanol/Water/Hydrochloric acid (conc.), mobile phase V / RF, Dioxane/Water/Hydrochloric acid (conc.), mobile phase VI / RF, Acetone/Water/Hydrochloric acid (conc.), mobile phase VI / RF, Methanol/Water/Hydrochloric acid (conc.), mobile phase VI / RF, Acetone/Water/Hydrochloric acid (conc.), mobile phase VII / RF, Methanol/Water/Hydrochloric acid (conc.), mobile phase VII / RF, Acetone/Water/Hydrochloric acid (conc.), mobile phase VIII / RF, Methanol/Water/Hydrochloric acid (conc.), mobile phase VIII: RP-18 silica; for RF, Methanol/Water/Hydrochloric acid (conc.), mobile phase I: I = 90%MeOH/5%H2O/5%HCl; for RF, Dioxane/Water/Hydrochloric acid (conc.), mobile phase II: II = 80%Dioxane/15%H2O/5%HCl; for RF, Methanol/Water/Hydrochloric acid (conc.), mobile phase II: II = 85%MeOH/10%H2O/5%HCl; for RF, Acetone/Water/Hydrochloric acid (conc.), mobile phase III: III = 70%AC/25%H2O/5%HCl; for RF, Dioxane/Water/Hydrochloric acid (conc.), mobile phase III: III = 70%Dioxane/25%H2O/5%HCl; for RF, Methanol/Water/Hydrochloric acid (conc.), mobile phase III: III = 80%MeOH/15%H2O/5%HCl; for RF, Dioxane/Water/Hydrochloric acid (conc.), mobile phase IV: IV = 60%Dioxane/35%H2O/5%HCl; for RF, Acetone/Water/Hydrochloric acid (conc.), mobile phase IV: IV = 65%AC/30%H2O/5%HCl; for RF, Methanol/Water/Hydrochloric acid (conc.), mobile phase IV: IV = 75%MeOH/20%H2O/5%HCl; for RF, Acetone/Water/Hydrochloric acid (conc.), mobile phase IX: IX = 40%AC/55%H2O/5%HCl; for RF, Methanol/Water/Hydrochloric acid (conc.), mobile phase IX: IX = 50%MeOH/45%H2O/5%HCl; for RF, Dioxane/Water/Hydrochloric acid (conc.), mobile phase V: V = 50%Dioxane/45%H2O/5%HCl; for RF, Acetone/Water/Hydrochloric acid (conc.), mobile phase V: V = 60%AC/35%H2O/5%HCl; for RF, Methanol/Water/Hydrochloric acid (conc.), mobile phase V: V = 70%MeOH/25%H2O/5%HCl; for RF, Dioxane/Water/Hydrochloric acid (conc.), mobile phase VI: VI = 40%Dioxane/55%H2O/5%HCl; for RF, Acetone/Water/Hydrochloric acid (conc.), mobile phase VI: VI = 55%AC/40%H2O/5%HCl; for RF, Methanol/Water/Hydrochloric acid (conc.), mobile phase VI: VI = 65%MeOH/30%H2O/5%HCl; for RF, Acetone/Water/Hydrochloric acid (conc.), mobile phase VII: VII = 50%AC/45%H2O/5%HCl; for RF, Methanol/Water/Hydrochloric acid (conc.), mobile phase VII: VII = 60%MeOH/35%H2O/5%HCl; for RF, Acetone/Water/Hydrochloric acid (conc.), mobile phase VIII: VIII = 45%AC/50%H2O/5%HCl; for RF, Methanol/Water/Hydrochloric acid (conc.), mobile phase VIII: VIII = 55%MeOH/40%H2O/5%HCl
Outline: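 Reverse-phase TLC using mobile phases of methanol, acetone or dioxane with water and hydrochloric acid. Methanol varied in 10% steps; development distance 4.5 cm, ambient temperature (22±2 °C). RF measured and RM0 derived from retention.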

[3] = Ferric reducing antioxidant power (FRAP) assay; settings: mean ± standard error of three experiments;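 also: expressed as µM Fe2+ equivalents from an FeSO4·7H2O standard curve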
Outline: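 Compounds at 10 and 100 µM were mixed with FRAP reagent (300 mM acetate buffer pH 3.6, TPTZ in HCl, FeCl3, 10:1:1) and incubated 60 min at 37 °C. Fe^2+-TPTZ formation read at 593 nm against a blank. Values derived from an Fe2SO4·7H2O standard curve, three independent experiments.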

[4] = logarithm of Ki in µM, BChE, dependent variable of the QSAR model, read-out: Y Measured 2 log(ki)Bche, log (Ki/µM BChE) (converted)
[5] = ± standard error, 25 °C, ATCh substrate, read-out: Ki BChE
[6] = log (Ki/µM AChE), read-out: Y Measured 1 log(ki)Ache (converted)
[7] = ± standard error, 25 °C, ATCh substrate, read-out: Ki AChE
[8] = Acetone/Water/Hydrochloric acid (conc.)
[9] = Dioxane/Water/Hydrochloric acid (conc.)
[10] = Methanol/Water/Hydrochloric acid (conc.)

T1 sequence (P06276 29-602): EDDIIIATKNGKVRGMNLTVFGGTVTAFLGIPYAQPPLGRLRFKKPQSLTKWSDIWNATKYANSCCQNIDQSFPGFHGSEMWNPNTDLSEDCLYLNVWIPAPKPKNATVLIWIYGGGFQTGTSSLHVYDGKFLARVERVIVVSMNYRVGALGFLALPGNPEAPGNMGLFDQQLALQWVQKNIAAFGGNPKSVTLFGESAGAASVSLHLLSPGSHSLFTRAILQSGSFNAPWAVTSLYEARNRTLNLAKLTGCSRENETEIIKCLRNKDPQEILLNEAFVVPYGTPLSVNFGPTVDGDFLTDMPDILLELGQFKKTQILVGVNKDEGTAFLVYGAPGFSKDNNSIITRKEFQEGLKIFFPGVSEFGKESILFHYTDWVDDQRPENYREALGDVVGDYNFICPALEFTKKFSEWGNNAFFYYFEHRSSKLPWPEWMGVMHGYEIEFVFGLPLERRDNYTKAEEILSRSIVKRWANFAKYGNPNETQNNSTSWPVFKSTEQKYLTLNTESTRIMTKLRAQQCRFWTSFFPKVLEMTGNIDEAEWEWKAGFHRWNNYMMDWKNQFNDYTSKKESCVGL
T2 sequence (P22303 32-614): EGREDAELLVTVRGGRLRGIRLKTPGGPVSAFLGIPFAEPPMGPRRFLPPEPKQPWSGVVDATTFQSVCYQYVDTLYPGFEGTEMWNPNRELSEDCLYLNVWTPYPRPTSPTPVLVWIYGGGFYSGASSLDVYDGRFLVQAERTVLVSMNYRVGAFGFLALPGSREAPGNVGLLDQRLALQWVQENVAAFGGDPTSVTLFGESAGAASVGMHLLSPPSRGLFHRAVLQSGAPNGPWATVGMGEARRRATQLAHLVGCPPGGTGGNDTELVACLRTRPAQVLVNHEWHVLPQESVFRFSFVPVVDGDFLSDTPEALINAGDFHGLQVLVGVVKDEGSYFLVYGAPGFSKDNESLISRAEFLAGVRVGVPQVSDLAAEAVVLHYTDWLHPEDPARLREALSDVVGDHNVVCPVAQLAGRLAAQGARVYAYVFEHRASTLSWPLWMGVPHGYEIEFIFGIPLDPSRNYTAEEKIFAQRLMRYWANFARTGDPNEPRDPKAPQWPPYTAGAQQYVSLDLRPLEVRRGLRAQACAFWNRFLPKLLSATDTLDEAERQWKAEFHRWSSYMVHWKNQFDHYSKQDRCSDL

| SMILES | pKa1 [1] | Ki (purified human BChE; [4]) | Ki (purified human BChE; [5]) | IS (recombinant human AChE) | Ki (recombinant human AChE; [6]) | Ki (recombinant human AChE; [7]) | RM0 [2, 8] | b [2, 8] | RM0 [2, 9] | b [2, 9] | RM0 [2, 10] | b [2, 10] | RF, Methanol/Water/Hydrochloric acid (conc.), mobile phase I [2] | RF, Dioxane/Water/Hydrochloric acid (conc.), mobile phase II [2] | RF, Methanol/Water/Hydrochloric acid (conc.), mobile phase II [2] | RF, Acetone/Water/Hydrochloric acid (conc.), mobile phase III [2] | RF, Dioxane/Water/Hydrochloric acid (conc.), mobile phase III [2] | RF, Methanol/Water/Hydrochloric acid (conc.), mobile phase III [2] | RF, Dioxane/Water/Hydrochloric acid (conc.), mobile phase IV [2] | logP [1] | further results |
| --- | --- | --- | --- | --- | --- | --- | --- | --- | --- | --- | --- | --- | --- | --- | --- | --- | --- | --- | --- | --- | --- |
| Oc1ccc(Cl)cc1Cl [2,4-dihlorfenol] | 7.89 |  |  |  |  |  |  |  |  |  |  |  |  |  |  |  |  |  |  |  |  |
| Oc1cccc2ccccc12 [Compound 1-naftol] | 9.34 |  |  |  |  |  |  |  |  |  |  |  |  |  |  |  |  |  |  |  |  |
| Clc1ccc2c(N3CCN(CCC45CC6CC(CC(C6)C4)C5)CC3)ccnc2c1 [Compound 21] |  | 5.6 µM | 5.6 ± 0.6 µM | 2.7 | 2.1 µM | 2.1 ± 0.4 µM | 1.611 | 2.562 | 0.7539 | 1.607 | 2.219 | 2.906 | 0.68 | 0.73 | 0.65 | 0.59 | 0.71 | 0.51 | 0.71 |  | RF, Acetone/Water/Hydrochloric acid (conc.), mobile phase IV [2]: 0.53; RF, Methanol/Water/Hydrochloric acid (conc.), mobile phase IV [2]: 0.51; RF, Acetone/Water/Hydrochloric acid (conc.), mobile phase IX [2]: 0.17; RF, Methanol/Water/Hydrochloric acid (conc.), mobile phase IX [2]: 0.12; RF, Dioxane/Water/Hydrochloric acid (conc.), mobile phase V [2]: 0.52; RF, Acetone/Water/Hydrochloric acid (conc.), mobile phase V [2]: 0.44; RF, Methanol/Water/Hydrochloric acid (conc.), mobile phase V [2]: 0.45; RF, Dioxane/Water/Hydrochloric acid (conc.), mobile phase VI [2]: 0.39; RF, Acetone/Water/Hydrochloric acid (conc.), mobile phase VI [2]: 0.4; RF, Methanol/Water/Hydrochloric acid (conc.), mobile phase VI [2]: 0.36; RF, Acetone/Water/Hydrochloric acid (conc.), mobile phase VII [2]: 0.35; RF, Methanol/Water/Hydrochloric acid (conc.), mobile phase VII [2]: 0.27; RF, Acetone/Water/Hydrochloric acid (conc.), mobile phase VIII [2]: 0.29; RF, Methanol/Water/Hydrochloric acid (conc.), mobile phase VIII [2]: 0.18; FRAP ([3]; 10 µM compound): 6.0 ± 2.0 µM; FRAP ([3]; 100 µM compound): 15 ± 5 µM |
| Clc1ccc2c(NCCCN3CCN(CCCNCC45CC6CC(CC(C6)C4)C5)CC3)ccnc2c1 [Compound 22] |  | 3.3 µM | 3.3 ± 0.2 µM | 4.8 | 0.69 µM | 0.69 ± 0.02 µM | 1.4989 | 2.763 | 0.5478 | 1.493 | 1.56 | 2.199 | 0.67 | 0.78 | 0.7 | 0.71 | 0.76 | 0.6 | 0.78 |  | RF, Acetone/Water/Hydrochloric acid (conc.), mobile phase IV [2]: 0.68; RF, Methanol/Water/Hydrochloric acid (conc.), mobile phase IV [2]: 0.59; RF, Acetone/Water/Hydrochloric acid (conc.), mobile phase IX [2]: 0.28; RF, Methanol/Water/Hydrochloric acid (conc.), mobile phase IX [2]: 0.22; RF, Dioxane/Water/Hydrochloric acid (conc.), mobile phase V [2]: 0.6; RF, Acetone/Water/Hydrochloric acid (conc.), mobile phase V [2]: 0.61; RF, Methanol/Water/Hydrochloric acid (conc.), mobile phase V [2]: 0.5; RF, Dioxane/Water/Hydrochloric acid (conc.), mobile phase VI [2]: 0.48; RF, Acetone/Water/Hydrochloric acid (conc.), mobile phase VI [2]: 0.51; RF, Methanol/Water/Hydrochloric acid (conc.), mobile phase VI [2]: 0.45; RF, Acetone/Water/Hydrochloric acid (conc.), mobile phase VII [2]: 0.43; RF, Methanol/Water/Hydrochloric acid (conc.), mobile phase VII [2]: 0.38; RF, Acetone/Water/Hydrochloric acid (conc.), mobile phase VIII [2]: 0.36; RF, Methanol/Water/Hydrochloric acid (conc.), mobile phase VIII [2]: 0.31; FRAP ([3]; 10 µM compound): 11 ± 3 µM; FRAP ([3]; 100 µM compound): 34 ± 8 µM |
| Clc1ccc2c(NCCCN3CCN(CCCNCCC45CC6CC(CC(C6)C4)C5)CC3)ccnc2c1 [Compound 23] |  | 1.8 µM | 1.8 ± 0.2 µM | 4.1 | 0.44 µM | 0.44 ± 0.09 µM | 1.784 | 2.934 | 0.7935 | 1.661 | 2.211 | 2.892 | 0.64 | 0.73 | 0.66 | 0.62 | 0.71 | 0.54 | 0.71 |  | RF, Acetone/Water/Hydrochloric acid (conc.), mobile phase IV [2]: 0.58; RF, Methanol/Water/Hydrochloric acid (conc.), mobile phase IV [2]: 0.53; RF, Acetone/Water/Hydrochloric acid (conc.), mobile phase IX [2]: 0.15; RF, Methanol/Water/Hydrochloric acid (conc.), mobile phase IX [2]: 0.12; RF, Dioxane/Water/Hydrochloric acid (conc.), mobile phase V [2]: 0.51; RF, Acetone/Water/Hydrochloric acid (conc.), mobile phase V [2]: 0.48; RF, Methanol/Water/Hydrochloric acid (conc.), mobile phase V [2]: 0.44; RF, Dioxane/Water/Hydrochloric acid (conc.), mobile phase VI [2]: 0.38; RF, Acetone/Water/Hydrochloric acid (conc.), mobile phase VI [2]: 0.42; RF, Methanol/Water/Hydrochloric acid (conc.), mobile phase VI [2]: 0.37; RF, Acetone/Water/Hydrochloric acid (conc.), mobile phase VII [2]: 0.35; RF, Methanol/Water/Hydrochloric acid (conc.), mobile phase VII [2]: 0.25; RF, Acetone/Water/Hydrochloric acid (conc.), mobile phase VIII [2]: 0.31; RF, Methanol/Water/Hydrochloric acid (conc.), mobile phase VIII [2]: 0.18; FRAP ([3]; 10 µM compound): 1.4 ± 0.1 µM; FRAP ([3]; 100 µM compound): 20 ± 5 µM |
| c1ccc2cc3ccccc3cc2c1 [antracen] |  |  |  |  |  |  |  |  |  |  |  |  |  |  |  |  |  |  |  | 4.45 |  |
| c1ccc2c(c1)ccc1ccccc12 [fenantren] |  |  |  |  |  |  |  |  |  |  |  |  |  |  |  |  |  |  |  | 4.46 |  |
| c1ccc2c(c1)Cc1ccccc1-2 [fluoren] |  |  |  |  |  |  |  |  |  |  |  |  |  |  |  |  |  |  |  | 4.18 |  |
| O=C1CN=C(c2ccccc2Cl)c2cc([N+](=O)[O-])ccc2N1 [klonazepam] | 10.5 |  |  |  |  |  |  |  |  |  |  |  |  |  |  |  |  |  |  | 2.41 | pKa2 [1]: 1.5 |
